In US12077503B2, “Substituted cyclic amides and their use as herbicides” (FMC CORPORATION, priority 2015, dated 2024):

Legend:
Type in all cases: in vivo
Kochia (Kochia scoparia) [1] = assay: Test A preemergence; conditions: Bassia scoparia, pre-emergence, 240 h, 0 to 100 scale where 0 is no effect and 100 is complete control, read-out: Kochia plant response rating
In short: (§1)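 Treatment is preemergence as a directed soil spray after planting, or postemergence at the one- to two-leaf stage, with test chemical in a non-phytotoxic solvent mixture plus surfactant. Plants stay in the greenhouse about 10 d before visual injury scoring on a 0 to 100 scale versus untreated controls.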

[2] = tested on: barnyardgrass (Echinochloa crus-galli); assay: Test A preemergence; conditions: Echinochloa crus-galli, pre-emergence, 240 h, 0 to 100 scale where 0 is no effect and 100 is complete control, read-out: Barnyardgrass plant response rating
In short: as §1

[3] = tested on: giant foxtail (Setaria faberii); assay: Test A preemergence; conditions: Setaria faberi, pre-emergence, 240 h, 0 to 100 scale where 0 is no effect and 100 is complete control, read-out: Foxtail, Giant plant response rating
In short: as §1

[4] = tested on: pigweed (Amaranthus retroflexus); assay: Test A preemergence; conditions: Amaranthus retroflexus, pre-emergence, 240 h, 0 to 100 scale where 0 is no effect and 100 is complete control, read-out: Pigweed plant response rating
[5] = tested on: ragweed (common ragweed, Ambrosia elatior); assay: Test A preemergence; conditions: Ambrosia artemisiifolia, pre-emergence, 240 h, 0 to 100 scale where 0 is no effect and 100 is complete control, read-out: Ragweed plant response rating
In short: as §1

[6] = tested on: ryegrass, Italian (Italian ryegrass, Lolium multiflorum); assay: Test A preemergence; conditions: Lolium multiflorum, pre-emergence, 240 h, 0 to 100 scale where 0 is no effect and 100 is complete control, read-out: Ryegrass, Italian plant response rating
In short: as §1

[7] = tested on: Galium (catchweed bedstraw, Galium aparine); assay: Test A postemergence; conditions: Galium, post-emergence, 240 h
In short: as §1

Kochia (Kochia scoparia) [8] = assay: Test A postemergence; conditions: Bassia scoparia, post-emergence, 240 h
In short: as §1

[9] = tested on: barnyardgrass (Echinochloa crus-galli); assay: Test A postemergence; conditions: Echinochloa crus-galli, post-emergence, 240 h
In short: as §1

[10] = tested on: blackgrass (Alopecurus myosuroides); assay: Test A postemergence; conditions: Alopecurus myosuroides, post-emergence, 240 h
In short: as §1

corn (Zea mays) = assay: Test A postemergence; conditions: Zea mays, post-emergence, 240 h
In short: as §1

[11] = tested on: giant foxtail (Setaria faberii); assay: Test A postemergence; conditions: Setaria faberi, post-emergence, 240 h
In short: as §1

[12] = tested on: pigweed (Amaranthus retroflexus); assay: Test A postemergence; conditions: Amaranthus retroflexus, post-emergence, 240 h, 125 g ai/ha, postemergence, visual injury vs untreated controls after approx. 10 d; 0 = no effect, 100 = complete control; read-out: Pigweed plant response rating (0 to 100 scale)
In short: as §1

[13] = tested on: ragweed (common ragweed, Ambrosia elatior); assay: Test A postemergence; conditions: Ambrosia artemisiifolia, post-emergence, 240 h, 125 g ai/ha, postemergence, visual injury vs untreated controls after approx. 10 d; 0 = no effect, 100 = complete control; read-out: Ragweed plant response rating (0 to 100 scale)
In short: as §1

[14] = tested on: ryegrass, Italian (Italian ryegrass, Lolium multiflorum); assay: Test A postemergence; conditions: Lolium multiflorum, post-emergence, 240 h, 125 g ai/ha, postemergence, visual injury vs untreated controls after approx. 10 d; 0 = no effect, 100 = complete control; read-out: Ryegrass, Italian plant response rating (0 to 100 scale)
In short: as §1

[15] = tested on: wheat (Triticum aestivum); assay: Test A postemergence; conditions: Triticum aestivum, post-emergence, 240 h, 125 g ai/ha, postemergence, visual injury vs untreated controls after approx. 10 d; 0 = no effect, 100 = complete control; read-out: Wheat plant response rating (0 to 100 scale)
In short: as §1

[16] = tested on: barnyardgrass (Echinochloa crus-galli); assay: Test B flooded paddy test; conditions: Echinochloa crus-galli, 250 g ai/ha, Flood; 0 to 100 scale where 0 is no effect and 100 is complete control; read-out: Barnyardgrass plant response rating
In short: (§2)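 Response scored visually against untreated controls, 0 = no effect and 100 = complete control, 13–15 d after treatment in the greenhouse. Compounds added to paddy water held 3 cm above soil surface. Treatment given at 2-leaf stage.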

[17] = tested on: ducksalad (Heteranthera limosa); assay: Test B flooded paddy test; conditions: Heteranthera limosa, 250 g ai/ha, Flood; 0 to 100 scale where 0 is no effect and 100 is complete control; read-out: Ducksalad plant response rating
In short: as §2

rice (Oryra sativa) = assay: Test B flooded paddy test; conditions: Oryza sativa, 250 g ai/ha, Flood; 0 to 100 scale where 0 is no effect and 100 is complete control; read-out: Rice plant response rating
In short: as §2

[18] = tested on: sedge, umbrella (small-flower umbrella sedge, Cyperus difformis); assay: Test B flooded paddy test; conditions: Cyperus difformis, 250 g ai/ha, Flood; 0 to 100 scale where 0 is no effect and 100 is complete control; read-out: Sedge, Umbrella plant response rating
In short: as §2

[19] = 125 g ai/ha, preemergence, visual injury rating, approximately 10 d

COc1ccc(C(F)(F)F)cc1[C@H]1CN(C)C(=O)[C@@H]1C(=O)Nc1ccccc1SC [Compound 1185]
pest or weed control at 31 g/ha (Kochia (Kochia scoparia) [1]; 31 g ai/ha, Preemergence): 0% | pest or weed control at 125 g/ha (Kochia (Kochia scoparia) [1]; [19]): 0% | pest or weed control at 31 g/ha ([2]; 31 g ai/ha, Preemergence): 70% | pest or weed control at 125 g/ha [2, 19]: 100% | pest or weed control at 31 g/ha ([3]; 31 g ai/ha, Preemergence): 50% | pest or weed control at 125 g/ha [3, 19]: 90% | pest or weed control at 31 g/ha ([4]; 31 g ai/ha, Preemergence): 0% | pest or weed control at 125 g/ha [4, 19]: 0% | pest or weed control at 31 g/ha ([5]; 31 g ai/ha, Preemergence): 0% | pest or weed control at 125 g/ha [5, 19]: 0% | pest or weed control at 31 g/ha ([6]; 31 g ai/ha, Preemergence): 0% | pest or weed control at 125 g/ha [6, 19]: 60% | pest or weed control at 125 g/ha ([7]; 125 g ai/ha, postemergence, visual injury vs untreated controls after approx. 10 d, 0 = no effect, 100 = complete control, read-out: Galium plant response rating (0 to 100 scale)): 0% | pest or weed control at 31 g/ha ([7]; Postemergence, 31 g ai/ha, visual injury after approx. 10 d, 0 to 100 scale, 0 no effect, 100 complete control, read-out: Plant response rating, Galium): 0% | pest or weed control at 125 g/ha (Kochia (Kochia scoparia) [8]; 125 g ai/ha, postemergence, visual injury vs untreated controls after approx. 10 d, 0 = no effect, 100 = complete control, read-out: Kochia plant response rating (0 to 100 scale)): 0% | pest or weed control at 31 g/ha (Kochia (Kochia scoparia) [8]; Postemergence, 31 g ai/ha, visual injury after approx. 10 d, 0 to 100 scale, 0 no effect, 100 complete control, read-out: Plant response rating, Kochia): 0% | pest or weed control at 125 g/ha ([9]; 125 g ai/ha, postemergence, visual injury vs untreated controls after approx. 10 d, 0 = no effect, 100 = complete control, read-out: Barnyardgrass plant response rating (0 to 100 scale)): 50% | pest or weed control at 31 g/ha ([9]; Postemergence, 31 g ai/ha, visual injury after approx. 10 d, 0 to 100 scale, 0 no effect, 100 complete control, read-out: Plant response rating, Barnyardgrass): 20% | pest or weed control at 125 g/ha ([10]; 125 g ai/ha, postemergence, visual injury vs untreated controls after approx. 10 d, 0 = no effect, 100 = complete control, read-out: Blackgrass plant response rating (0 to 100 scale)): 50% | pest or weed control at 31 g/ha ([10]; Postemergence, 31 g ai/ha, visual injury after approx. 10 d, 0 to 100 scale, 0 no effect, 100 complete control, read-out: Plant response rating, Blackgrass): 0% | plant injury at 125 g/ha (corn (Zea mays); 125 g ai/ha, postemergence, visual injury vs untreated controls after approx. 10 d, 0 = no effect, 100 = complete control, read-out: Corn plant response rating (0 to 100 scale)): 20% | Corn plant response rating (crop injury, 0 = no effect, 100 = complete kill) at 31 g/ha (corn (Zea mays); Postemergence, 31 g ai/ha, visual injury after approx. 10 d, 0 to 100 scale, 0 no effect, 100 complete control): 0% | pest or weed control at 125 g/ha ([11]; 125 g ai/ha, postemergence, visual injury vs untreated controls after approx. 10 d, 0 = no effect, 100 = complete control, read-out: Foxtail, Giant plant response rating (0 to 100 scale)): 60% | pest or weed control at 31 g/ha ([11]; Postemergence, 31 g ai/ha, visual injury after approx. 10 d, 0 to 100 scale, 0 no effect, 100 complete control, read-out: Plant response rating, Foxtail, Giant): 30% | pest or weed control at 125 g/ha [12]: 0% | pest or weed control at 125 g/ha [13]: 0% | pest or weed control at 125 g/ha [14]: 20% | plant injury at 125 g/ha [15]: 40% | pest or weed control at 250 g/ha [16]: 60% | pest or weed control at 250 g/ha [17]: 50% | pest or weed control at 250 g/ha (rice (Oryra sativa)): 0% | pest or weed control at 250 g/ha [18]: 0%
